This is an account of results in patent US5580552A, “7-glycosyloxybenzopyran derivative and antiallergic agent containing the derivative as active ingredient” (priority 1994, dated 1996).

Assay [1] concerns homologous passive cutaneous anaphylaxis (PCA) reaction. Nature of the assay: Effect on homologous passive cutaneous anaphylaxis (PCA) reaction in rats. Type of assay: in vivo, rats (male wistar). Particulars: 50 mg/kg oral, 1 hour before challenge (TABLE 2); for inhibition in vivo at 50 mg/kg: Rattus norvegicus, po, 0.5 h. As to the method: Effect on homologous passive cutaneous anaphylaxis (PCA) reaction in rats.
This experimental animal model is caused by immediate type allergic reaction namely, antigen-antibody reaction. In the following, the method of this pharmacological test will be explained.
Method: Male wistar rats (9 weeks old) were intradermally administered 0.05 ml of anti-serum against dinitrophenylated ascaris (DNP-As) into two sites on the shaved dorsal skin. 48 hours later, 7-glycosyloxybenzopyran derivatives (test compounds) suspended in 0.5% sodium carboxymethylcellulose (CMCNa) were given orally at a dose of 50 mg/kg to the animals. One hour after administration of Test compounds, the animals were induced anaphylaxis by injection of saline (1 ml) dissolving 5 mg of Evans Blue and 1 mg of Trinitrophenylated ascaris (TNP-As) into the tail vein of the animals. 30 minutes after induction of anaphylaxis, animals were anesthetized by ether and killed by bleeding, and were flayed dorsal skin. The determination of extravasated dye was performed according to the method of Katayama et al. (Microbiol. Immunol., Vol.22, P 89-101, 1978). As vehicle control group, only 0.5% CMCNa solution was administered orally, and as positive control group, Tranilast suspended in 0.5% CMCNa was administered orally at a dose of 100 mg/kg to the animals with the same method as the test compounds groups. Each experimental group consisted of 5 rats. [formula]

The test system of assay [2] is experimental asthma model (airway resistance). The experiment in a line: Effect on experimental asthma model in guinea pigs (airway resistance). Type of assay: in vivo, guinea pigs (male hartley). The settings on record: 50 mg/kg oral (TABLE 6); for inhibition in vivo at 50 mg/kg: Cavia porcellus, po, 0.5 h. The protocol:
Effect on experimental asthma model in guinea pigs
The asthma is typical allergic disease and we carried out this pharmacological test by well known experimental asthma model in guinea pigs in order to comfirm that the compounds of the present invention suppress the asthma. In the following, the method of the pharmacological test will be explained.
Method: Male hartley guinea pigs were immunized by intraperitoneal injection of saline (1ml) containing 5 mg of ovalbumine (OVA) three times at interval of one week. 2 weeks after final immunization, the animals were challenged by inhalation of 1% OVA-saline solution for 1 minute and then the airway resistance of the animals were measured for 30 minutes with PULMOS-1 (Medical Interface Project Station Inc.) after the inhalation. The compounds of the present invention (test compounds) suspended in 0.5% CMCNa were given orally at a dose of 50 mg/kg. As positive control group, Disodium Cromoglicate (DSCG), well known anti-allergic agent, in saline were injected at a dose of 20 mg/kg into the vein of the animals. As vehicle control group, only 0.5% CMCNa solution were given orally. The inhibition (%) of the airway resistance in vehicle control group was calculated according to equation 5 and the result was shown in TABLE 6. Each experimental group consisted of 5 guinea pigs. [formula]
A: Maximum airway resistance in vehicle control group
B: Maximum airway resistance in test compounds group or positive control group

The test system of assay [3] is contact dermatitis induced by picryl chloride. The experiment in a line: Effect on contact dermatitis induced by picryl chloride in mice. Type of assay: in vivo. The settings on record: 50 mg/kg oral, 1 hour before and 16 hours after challenge, 24 hours after challenge; for inhibition in vivo at 50 mg/kg: Mus musculus, po, 24 h, read-out: Inhibition (%) against the increase of ear thickness. As to the method:
Effect on contact dermatitis induced by picryl chloride in mice
The delayed type hypersensitization is inhibited by steroid drugs,but can not be effected by known anti-allergic agents. In the following, the method of the pharmacological test will be explained.
Method: Mice, shaved their abdominal skin on previous day, were immunized by applying 0.1 ml of acetone containing 7 mg of picryl chloride to the skin of the abdomen. 7 days after immunization, the thickness of the ear was measured with a dial thickness gauge, then mice were challenged by painting 5 μl of 1% picryl chloride olive oil solution to each side skin of left ear. 24 hours after challenge, the thickness of the left ear was measured again and the increase (%) of thickness was calculated according to equation 2. The compounds of the present invention (test compounds) suspended in 0.5% CMCNa were forcibly administered orally at a dose of 50 mg/kg at 1 hour before and 16 hours after challenge. As vehicle control group, only 0.5% CMCNa solution were administered orally, and as positive control group, Prednisolone, steroid hormone, and Tranilast were administered orally at the doses of 10 mg/kg and 100 mg/kg, respectively.
Increase (%)=(A-B)/B×100 (Equation 2)
A: thickness of the ear at 24 hours after challenge
B: thickness of the ear before challenge
Inhibition (%)=(C-D)/C×100 (equation 3)
C: The increase (%) in vehicle control group
D: The increase (%) in test compounds group or positive control group

As for `COc1c(O)c(=O)oc2cc(O[C@@H]3O[C@H](CO)[C@@H](O)[C@H](O)[C@H]3O)ccc12` [compound 109], the results for the inhibition in vivo at 50 mg/kg in assay [1], in assay [2] and in assay [3] were 42.1%, 53.1% and 43.8%, respectively.
In the case of `COc1c(O)c(=O)oc2cc(O[C@@H]3O[C@H](CO)[C@@H](O)[C@H](O)[C@H]3O)ccc12` [compound 153], the “Inhibition (%) of PCA reaction” value in assay [1] worked out at 42.4%. Also, the “Inhibition (%) of the airway resistance” value in assay [2] stood at 54.3%. The “Inhibition (%) against the increase of ear thickness” value (“Inhibition (%) against the increase” below) in assay [3] is listed as 44.7%.
On to `CCCCCCCCCCCCOc1c(O)c2ccc(O[C@H]3O[C@H](CO)[C@@H](O)[C@H](O)[C@@H]3O)cc2oc1=O` [compound 66], for which the figures for the inhibition in vivo at 50 mg/kg in assay [1], in assay [2] and in assay [3] were 49.3%, 54.3% and 51.4%, respectively.
Consider `CCCCOc1c(O)c2ccc(O[C@@H]3O[C@H](CO)[C@@H](O)[C@H](O)[C@H]3O)cc2oc1=O` [compound 37], for which the figures for the inhibition in vivo at 50 mg/kg in assay [1], in assay [2] and in assay [3] were 55.1%, 68.2% and 53.9%, respectively.
As to `O=c1oc2cc(O[C@H]3O[C@H](CO)[C@@H](O)[C@H](O)[C@@H]3O)ccc2c(O)c1OCc1ccccc1` [compound 72], the inhibition in vivo at 50 mg/kg in assay [1] was 45.2%; in assay [2], 52.1%; in assay [3], 42.3%.
As to `O=c1oc2cc(O[C@@H]3O[C@H](CO)[C@H](O)[C@H](O)[C@H]3O)ccc2c(O)c1OCc1ccccc1` [compound 96], the inhibition in vivo at 50 mg/kg in assay [1] was 50.1%; in assay [2], 58.2%; in assay [3], 48.9%.
Take `CC(C)=CCC/C(C)=C/COc1c(O)c2ccc(O[C@@H]3O[C@H](CO)[C@@H](O)[C@H](O)[C@H]3O)cc2oc1=O` [compound 46]: the inhibition in vivo at 50 mg/kg in assay [1] is 54.3%; in assay [2] it was 63.4%; in assay [3] it was 57.6%.
Take `CC1CCC(Oc2c(O)c(=O)oc3cc(O[C@H]4O[C@H](CO)[C@@H](O)[C@H](O)[C@@H]4O)ccc23)CC1` (stereo partly drawn) [compound 136]: the inhibition in vivo at 50 mg/kg in assay [1] was 42.2%; in assay [2] it was 51.2%; in assay [3] it was 41.2%.
As to `CCC=CCCOc1c(O)c2ccc(O[C@@H]3O[C@H](CO)[C@H](O)[C@H](O)[C@H]3O)cc2oc1=O` [compound 94], the inhibition in vivo at 50 mg/kg was determined as 53.7% in assay [1], 73.2% in assay [2] and 51.2% in assay [3].
With `CCCCCCCCCCOc1c(O)c2ccc(O[C@H]3O[C@H](CO)[C@@H](O)[C@H](O)[C@@H]3O)cc2oc1=O` [compound 65], the inhibition in vivo at 50 mg/kg turned out to be 52.1% in assay [1], 49.3% in assay [2] and 50.3% in assay [3].
Regarding `CCCCCCOc1c(O)c(=O)oc2cc(O[C@@H]3O[C@H](CO)[C@@H](O)[C@H](O)[C@H]3O)ccc12` [compound 19, 3-hydroxy-4-hexyloxy-7-(β-D-glucopyranosyloxy)-2H-1-benzopyran-2-one], the inhibition in vivo at 50 mg/kg was 44.9% in assay [1], 65.2% in assay [2] and 47.1% in assay [3].
With `O=c1oc2cc(O[C@@H]3O[C@H](CO)[C@@H](O)[C@H](O)[C@H]3O)ccc2c(O)c1O` [compound 151], the “Inhibition (%) of PCA reaction” value in assay [1] was determined as 45.4%. Moreover, in assay [2], the “Inhibition (%) of the airway resistance” value was 49.7%. Moreover, the “Inhibition (%) against the increase” value in assay [3] came to 46.5%.
`CCCCCCOc1c(O)c2ccc(O[C@@H]3O[C@H](CO)[C@H](O)[C@H](O)[C@H]3O)cc2oc1=O` [compound 87]: the values for the inhibition in vivo at 50 mg/kg in assay [1], in assay [2] and in assay [3] were 60.3%, 79.5% and 64.9%, respectively.
For the compound `O=c1oc2cc(O[C@H]3O[C@H](CO)[C@@H](O)[C@H](O)[C@@H]3O)ccc2c(O)c1O` [compound 130], the “Inhibition (%) of PCA reaction” value in assay [1] came out at 40.1%. Besides, the “Inhibition (%) of the airway resistance” value in assay [2] came out at 40.2%. Also, in assay [3], the “Inhibition (%) against the increase” value is listed as 41.2%.
Regarding `CCCCCCCCCCCCOc1c(O)c(=O)oc2cc(O[C@@H]3O[C@H](CO)[C@@H](O)[C@H](O)[C@H]3O)ccc12` [compound 112], the figures for the inhibition in vivo at 50 mg/kg in assay [1], in assay [2] and in assay [3] were 44.5%, 57.2% and 43.3%, respectively.
As for `C=COc1c(O)c2ccc(O[C@H]3O[C@H](CO)[C@@H](O)[C@H](O)[C@@H]3O)cc2oc1=O` [compound 69], the inhibition in vivo at 50 mg/kg in assay [1] is 48.1%; in assay [2], 59.3%; in assay [3] it was 49.9%.
Regarding `C=COc1c(O)c(=O)oc2cc(O[C@@H]3O[C@H](CO)[C@@H](O)[C@H](O)[C@H]3O)ccc12` [compound 158], the “Inhibition (%) of PCA reaction” value in assay [1] was found to be 44.3%. The “Inhibition (%) of the airway resistance” value in assay [2] is recorded as 42.3%. In assay [3], the “Inhibition (%) against the increase” value turned out to be 48.2%.
Consider `CCCCCCCCOc1c(O)c(=O)oc2cc(O[C@H]3O[C@H](CO)[C@@H](O)[C@H](O)[C@@H]3O)ccc12` [compound 132], for which the inhibition in vivo at 50 mg/kg in assay [1] is 42.9%; in assay [2], 50.1%; in assay [3] it was 43.2%.
Consider `CCC=CCCOc1c(O)c(=O)oc2cc(O[C@@H]3O[C@H](CO)[C@@H](O)[C@H](O)[C@H]3O)ccc12` [compound 116], for which the inhibition in vivo at 50 mg/kg in assay [1] came to 46.1%; in assay [2] it was 62.8%; in assay [3] it was 44.4%.
The like results for `CCCCCCCCCCCCOc1c(O)c2ccc(O[C@@H]3O[C@H](CO)[C@H](O)[C@H](O)[C@H]3O)cc2oc1=O` [compound 90] were, in that order, 54.3%, 72.1% and 60.1%.
With `CC1CCC(Oc2c(O)c(=O)oc3cc(O[C@@H]4O[C@H](CO)[C@@H](O)[C@H](O)[C@H]4O)ccc23)CC1` (stereo partly drawn) [compound 114], the inhibition in vivo at 50 mg/kg in assay [1] worked out at 45.3%; in assay [2] it was 59.7%; in assay [3], 47.3%.
The like results for `CC(=O)Oc1c(O)c2ccc(O[C@@H]3O[C@H](CO)[C@@H](O)[C@H](O)[C@H]3O)cc2oc1=O` [compound 11, 3-acetoxy-4-hydroxy-7-(β-D-glucopyranosyloxy)-2H-1-benzopyran-2-one] were, in that order, 43.2%, 45.7% and 44.3%.
Take `CC(C)=CCC/C(C)=C/COc1c(O)c(=O)oc2cc(O[C@H]3O[C@H](CO)[C@@H](O)[C@H](O)[C@@H]3O)ccc12` [compound 139]: the inhibition in vivo at 50 mg/kg in assay [1] turned out to be 41.8%; in assay [2], 47.2%; in assay [3] it was 42.1%.
With `CCCCCCCCCCCCOc1c(O)c2ccc(O[C@@H]3O[C@H](CO)[C@@H](O)[C@H](O)[C@H]3O)cc2oc1=O` [compound 41], the inhibition in vivo at 50 mg/kg is 55.4% in assay [1], 70.2% in assay [2] and 60.1% in assay [3].
